From patent publication US20190125790A1, “USE OF HYPOCHLOROUS ACID AS A TOPICAL ANTIMICROBIAL” (BIIOSMART TECHNOLOGIES LLC, priority 2016, published 2019) come the findings set out here.

A short description of the series: Controlled randomized single blind clinical trial in surgical open wounds. It is filed as in vivo, human. On the procedure:
The biocompatibility of the 0.046% HOCl concentration aqueous solution was tested in a three way controlled and randomized single blind clinical trial. Patients were randomized into three groups (60 patients per group). The antiseptic efficacy and biocompatibility of the test solution vs. povidone-iodine vs. chlorhexidine (Chlorhexidine Gluconate—CHG) in surgical—clean and clean contaminated—open wounds was evaluated in 180 patients admitted to the surgical facilities of Erasmo Meoz Hospital in Cucuta, Colombia.

Regarding `[H]/N=C(\N/C(=N/[H])NCCCCCCNC(=N)NC(=N)Nc1ccc(Cl)cc1)Nc1ccc(Cl)cc1` [chlorhexidine, Chlorhexidine Gluconate], where the note is “after five days follow-up, 60 patients per group”, the infected patients result is recorded as “two”. For the setting “human, in vivo”, the “wound appearance (biocompatibility)” value was “dried edges and no promising color in wound bed”.
